Data: US8748461B2, “Metalloenzyme inhibitor compounds” (Viamet Pharmaceuticals, Inc., priority 2011, dated 2014)
Converted amounts (≈) assume the structure as drawn.

Legend:
CYP2C19 = biological target: T1, CYP2C19 (Homo sapiens, UniProt P33261); test: Inhibition of liver cytochrome P450 enzymes, isozyme 2C19; type: in vitro ADME; conditions: pooled human liver microsomes
T1 construct: from tissue; host or cells: pooled human liver microsomes
Method: (§1) B. […] Solutions of each test compound were separately prepared at concentrations of 20000, 6000, 2000, 600, 200, and 60 μM by serial dilution with DMSO:acetonitrile (MeCN) (50:50 v/v). The individual test compound solutions were then diluted 20-fold with DMSO:MeCN:deionized water (5:5:180 v/v/v) to concentrations of 1000, 300, 100, 30, 10, and 3 μM. […] The mixed inhibitor solutions were then diluted 20-fold with DMSO:MeCN:deionized water (5:5:180 v/v/v) to concentrations of 300, 100, 30, 10, 3, 1, 0.3, and 0.1 μM. The percent of organic solvent attributable to the test compound or inhibitor mixture in the final reaction mixture was 2% v/v. Pooled human liver microsome suspension (20 mg/mL) was diluted with phosphate buffer to obtain a 5 mg/mL suspension. A solution of NADPH was prepared in phosphate buffer at a concentration of 5 mM. Separate stock solutions of each substrate were prepared in DMSO:MeCN (50:50 v/v), mixed, and diluted in phosphate buffer to obtain a single solution containing each substrate at five times its experimentally determined Km concentration. […] A portion of the supernatant was analyzed by gradient reverse-phase HPLC with detection by electrospray ionization triple quadrupole mass spectrometry in the positive ion mode. Data was fitted to sigmoid dose-response curves and the inhibitory potency of each test compound was determined as its IC50 value.

[1] = test system: Puccinia recondita tritici = Puccinia triticina; test: Fungicidal activity vs. leaf rust on wheat plants; type: in vivo; conditions: 50 ppm spray on wheat (Yuma), inoculated the following day, evaluated 7-9 days later; read-out: Puccinia Rating (% Disease Control @ 50 ppm)
Procedure, shortened: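 Wheat seedlings were sprayed to wetness with compound at 50 ppm in 10% acetone/Triton X100 water, at about 1500 L/ha. They were inoculated with P. recondita tritici spores the following day and held overnight at high humidity before greenhouse growth. Disease severity was rated 7-9 days later on a rating scale.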

[2] = test system: Septoria tritici (ATCC 26517); test: Minimum Inhibitory Concentration (MIC) vs. Septoria tritici; type: cell-based; conditions: Zymoseptoria tritici, ATCC26517, 168 h; 50% reduction in growth of S. tritici; 22° C., seven days; read-out: Septoria Rating (MIC)
Procedure, shortened: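 Growth inhibition of S. tritici by CLSI-based filamentous-fungus microdilution, 2-fold series 16 to 0.016 μg/mL in RPMI-1640/MOPS with 2% DMSO. Inoculum approximately 5×10^4 cfu/mL; plates incubated 22° C, seven days, dark, unshaken.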

C. albicans = test: Minimum Inhibitory Concentration (MIC) (C. albicans), CLSI M27-A2; type: cell-based; conditions: Candida albicans; about 50% growth reduction; approximately 48 h at 35±1° C.
Method: A. Minimum Inhibitory Concentration (MIC) (C. albicans) Compounds of the present disclosure were assessed for their ability to inhibit the growth of common strains of fungus, C. albicans using a standardized procedure (CLSI M27-A2). Stock solutions of the test compounds and standards were prepared in DMSO at 1,600 μg/mL (C. albicans). Eleven, serial, one-half dilutions of compounds were prepared in 96-well plates in RPMI+MOPS. The assay concentration ranges were 8-0.001 μg/mL (C. albicans). Cell suspensions of C. albicans were prepared and added to each well at concentrations of approximately 3.7×10^3 colony-forming-units per milliliter (cfu/mL). All testing was in duplicate. The inoculated plates were incubated for approximately 48 h at 35±1° C. At the completion of incubation the wells of each plate were evaluated visually for the presence of fungal growth. […] For QC purposes C. krusei isolate ATCC 6258 (4.0×10^3 cfu/mL) was included in the VOR assay.

CYP2C9 = biological target: T2, CYP2C9 (Homo sapiens, UniProt P11712); test: Inhibition of liver cytochrome P450 enzymes, isozyme 2C9; type: in vitro ADME; conditions: pooled human liver microsomes
T2 construct: from tissue; host or cells: pooled human liver microsomes
T2 sequence (P11712 whole entry): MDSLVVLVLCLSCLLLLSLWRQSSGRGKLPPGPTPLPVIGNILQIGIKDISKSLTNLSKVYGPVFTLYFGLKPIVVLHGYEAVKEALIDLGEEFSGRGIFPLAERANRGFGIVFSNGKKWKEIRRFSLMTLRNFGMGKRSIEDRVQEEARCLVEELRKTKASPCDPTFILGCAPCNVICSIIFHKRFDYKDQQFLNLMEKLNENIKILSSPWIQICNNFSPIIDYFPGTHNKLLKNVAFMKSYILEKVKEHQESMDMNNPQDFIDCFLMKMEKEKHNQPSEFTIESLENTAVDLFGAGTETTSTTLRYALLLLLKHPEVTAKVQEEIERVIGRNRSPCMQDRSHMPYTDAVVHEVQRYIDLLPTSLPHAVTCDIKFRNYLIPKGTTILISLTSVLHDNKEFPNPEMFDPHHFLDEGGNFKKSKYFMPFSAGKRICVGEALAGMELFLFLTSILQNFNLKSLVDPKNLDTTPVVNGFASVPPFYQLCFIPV
Method: as §1

CYP3A4 = biological target: T3, CYP3A4 (Homo sapiens, UniProt P08684); test: Inhibition of liver cytochrome P450 enzymes, isozyme 3A4; type: in vitro ADME; conditions: pooled human liver microsomes
T3 construct: from tissue; host or cells: pooled human liver microsomes
T3 sequence (P08684 whole entry): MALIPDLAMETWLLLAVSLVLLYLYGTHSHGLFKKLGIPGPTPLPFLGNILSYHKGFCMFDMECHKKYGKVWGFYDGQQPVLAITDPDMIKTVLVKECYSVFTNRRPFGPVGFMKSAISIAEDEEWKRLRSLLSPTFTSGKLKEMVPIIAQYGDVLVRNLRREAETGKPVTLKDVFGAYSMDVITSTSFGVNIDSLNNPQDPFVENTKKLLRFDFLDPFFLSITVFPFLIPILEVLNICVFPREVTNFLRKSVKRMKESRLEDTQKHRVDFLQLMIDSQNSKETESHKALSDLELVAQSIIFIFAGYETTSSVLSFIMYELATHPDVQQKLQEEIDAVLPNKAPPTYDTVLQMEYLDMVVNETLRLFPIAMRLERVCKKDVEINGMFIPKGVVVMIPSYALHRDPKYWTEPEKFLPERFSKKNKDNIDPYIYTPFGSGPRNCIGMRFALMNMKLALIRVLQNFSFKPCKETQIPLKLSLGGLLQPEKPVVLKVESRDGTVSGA
Method: as §1

T1 sequence (P33261 whole entry): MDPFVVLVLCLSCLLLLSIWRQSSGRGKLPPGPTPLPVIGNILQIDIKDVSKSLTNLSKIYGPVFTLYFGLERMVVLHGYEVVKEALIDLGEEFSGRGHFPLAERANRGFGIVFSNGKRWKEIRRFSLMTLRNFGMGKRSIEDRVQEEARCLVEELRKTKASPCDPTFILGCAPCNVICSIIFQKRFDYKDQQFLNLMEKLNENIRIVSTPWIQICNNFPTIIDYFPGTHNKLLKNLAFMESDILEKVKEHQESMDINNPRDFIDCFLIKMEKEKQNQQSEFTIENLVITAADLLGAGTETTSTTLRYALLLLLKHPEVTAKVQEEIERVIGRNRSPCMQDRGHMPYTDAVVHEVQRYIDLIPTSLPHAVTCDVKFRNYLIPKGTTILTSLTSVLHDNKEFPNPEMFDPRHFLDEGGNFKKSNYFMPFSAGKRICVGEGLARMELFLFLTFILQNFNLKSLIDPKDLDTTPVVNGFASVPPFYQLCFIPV

IC50 (CYP2C19) [µM]	MIC [2] [µg/mL]	MIC (C. albicans) [µg/mL]	IC50 (CYP2C9) [µM]	IC50 (CYP3A4) [µM]	SMILES	pest or weed control at 50 ppm [1] [%]
11	≤ 0.5	0.002 (≈ 0.00419 µM)	12	8.4	OC(Cn1cnnn1)(c1ccc(F)cc1F)C(F)(F)c1ccc(OCc2cccc(F)c2)cn1 (stereo not drawn) [Compound 3, 2-(2,4-Difluorophenyl)-1,1-difluoro-1-(5-(3-fluorobenzyloxy)pyridin-2-yl)-3-(1H-tetrazol-1-yl)propan-2-ol]	80 to 100
16	≤ 0.5	0.031 (≈ 0.0659 µM)	31	16	N#Cc1ccc(Oc2ccc(C(F)(F)C(O)(Cn3cnnn3)c3ccc(F)cc3F)nc2)cc1 (stereo not drawn) [Compound 5, 4-(6-(2-(2,4-Difluorophenyl)-1,1-difluoro-2-hydroxy-3-(1H-tetrazol-1-yl)propyl)pyridin-3-yloxy)benzonitrile]	80 to 100
